Source: ChEMBL document CHEMBL1201862, “PubChem BioAssay data set” (2004)
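Grown in 96-well plates, cells were treated for 48 hours with each compound at five concentrations. Insufficient inhibition: endpoint recorded as highest concentration tested. GI50: concentration for 50% inhibition of growth.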 Active and inactive are the calls of the source. Cut-off read from the data, not from the text of the source: active = GI50 up to about 1.1 µM and inactive = higher.

Columns and labels:
Experiment in all cases: inhibition of tumour cell growth, NCI panel, 48 h
A498 = system: A498
UACC-257 = system: UACC-257
RXF 393 = system: RXF 393
SNB-19 = system: SNB-19
SK-OV-3 = system: SK-OV-3
Malme-3M = system: Malme-3M
SNB-75 = system: SNB-75
NCI-H460 = system: NCI-H460
OVCAR-4 = system: OVCAR-4
HOP-18 = system: HOP-18
SK-MEL-5 = system: SK-MEL-5
HCC 2998 = system: HCC 2998
SF-295 = system: SF-295
HOP-92 = system: HOP-92
RPMI-8226 = system: RPMI-8226
KM-20L2 = system: KM-20L2
DMS-273 = system: DMS-273
CCRF-CEM = system: CCRF-CEM
NCI-H522 = system: NCI-H522
EKVX = system: EKVX
IGROV-1 = system: IGROV-1
SW-620 = system: SW-620
A549 = system: A549
LXFL 529 = system: LXFL 529
COLO 205 = system: COLO 205
NCI-H226 = system: NCI-H226
OVCAR-3 = system: OVCAR-3
M14 = system: M14
786-0 = system: 786-0
HCT-116 = system: HCT-116
SF-268 = system: SF-268
MOLT-4 = system: MOLT-4
HT-29 = system: HT-29
OVCAR-5 = system: OVCAR-5
HCT-15 = system: HCT-15
SR = system: SR
U-251 = system: U-251
SN12C = system: SN12C
HL-60 = system: HL-60
ACHN = system: ACHN
SK-MEL-28 = system: SK-MEL-28
UACC-62 = system: UACC-62
OVCAR-8 = system: OVCAR-8
KM12 = system: KM12
M19-MEL = system: M19-MEL
DLD-1 = system: DLD-1
SNB-78 = system: SNB-78
HOP-62 = system: HOP-62
NCI-H23 = system: NCI-H23
RXF 631 = system: RXF 631
CAKI-1 = system: CAKI-1
K562 = system: K562
LOX IMVI = system: LOX IMVI
TK-10 = system: TK-10
DMS-114 = system: DMS-114
UO-31 = system: UO-31
SK-MEL-2 = system: SK-MEL-2

SMILES: CC(=O)O[C@H]1CC[C@@]2(C)C(CC[C@]3(C)C2CC[C@]2(C)Oc4c(C)cc(O)cc4C[C@@H]23)C1(C)C (some centres not stated)
- GI50 (A498): 12.7 µM (inactive)
- GI50 (UACC-257): 8.47 µM (inactive)
- GI50 (RXF 393): 2.88 µM (inactive)
- GI50 (SNB-19): 4.24 µM (inactive)
- GI50 (SK-OV-3): 7.08 µM (inactive)
- GI50 (Malme-3M): 10.1 µM (inactive)
- GI50 (SNB-75): 2.96 µM (inactive)
- GI50 (NCI-H460): 4.11 µM (inactive)
- GI50 (OVCAR-4): 7.64 µM (inactive)
- GI50 (HOP-18): 13.5 µM (inactive)
- GI50 (SK-MEL-5): 5.87 µM (inactive)
- GI50 (HCC 2998): 7.6 µM (inactive)
- GI50 (SF-295): 2.17 µM (inactive)
- GI50 (HOP-92): 6.85 µM (inactive)
- GI50 (RPMI-8226): 2.5 µM (inactive)
- GI50 (KM-20L2): 5.5 µM (inactive)
- GI50 (DMS-273): 3.65 µM (inactive)
- GI50 (CCRF-CEM): 3.79 µM (inactive)
- GI50 (NCI-H522): 5.46 µM (inactive)
- GI50 (EKVX): 19.5 µM (inactive)
- GI50 (IGROV-1): 13.5 µM (inactive)
- GI50 (SW-620): 1.88 µM (inactive)
- GI50 (A549): 5.22 µM (inactive)
- GI50 (LXFL 529): 3.65 µM (inactive)
- GI50 (COLO 205): 14.5 µM (inactive)
- GI50 (NCI-H226): 15.9 µM (inactive)
- GI50 (OVCAR-3): 11.7 µM (inactive)
- GI50 (M14): 11.9 µM (inactive)
- GI50 (786-0): 1.99 µM (inactive)
- GI50 (HCT-116): 5.27 µM (inactive)
- GI50 (SF-268): 4.61 µM (inactive)
- GI50 (MOLT-4): 2.84 µM (inactive)
- GI50 (HT-29): 11.2 µM (inactive)
- GI50 (OVCAR-5): 10.9 µM (inactive)
- GI50 (HCT-15): 3.66 µM
- GI50 (SR): 2.67 µM (inactive)
- GI50 (U-251): 2.71 µM (inactive)
- GI50 (SN12C): > 10 µM (inactive)
- GI50 (HL-60): 3.82 µM (inactive)
- GI50 (ACHN): 5.46 µM (inactive)
- GI50 (SK-MEL-28): 8.59 µM (inactive)
- GI50 (UACC-62): 8.59 µM (inactive)
- GI50 (OVCAR-8): 8.93 µM (inactive)
- GI50 (KM12): 6.71 µM (inactive)
- GI50 (M19-MEL): 11.9 µM (inactive)
- GI50 (DLD-1): 10.4 µM (inactive)
- GI50 (SNB-78): 7.52 µM (inactive)
- GI50 (HOP-62): 10.8 µM (inactive)
- GI50 (NCI-H23): 6.56 µM (inactive)
- GI50 (RXF 631): 5.16 µM (inactive)
- GI50 (CAKI-1): 8.99 µM (inactive)
- GI50 (K562): 3.96 µM (inactive)
- GI50 (LOX IMVI): 8.75 µM (inactive)
- GI50 (TK-10): 13.2 µM (inactive)
- GI50 (DMS-114): 7.1 µM (inactive)
- GI50 (UO-31): 8.75 µM (inactive)
- GI50 (SK-MEL-2): 7.52 µM (inactive)
